pIC50: −log10 of the molar value. “And” between values parts separate entries of the source, which are not always exact repeats. Equal values may be shown once.
Test system: 422866-222-R5-J1-PDC spheroid viability
Experiment: Anticancer human tumor 422866-222-R5-J1-PDC patient-derived pancreatic adenocarcinoma cell line growth inhibition [CLK]
Details: spheroids with HUVEC and MSC; for viability, T/C: stronger effect = lower value; active = viability on the fitted dose curve at most 10% of control; inactive = the rest
Summary of the method: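 Patient-derived tumor cells grown as complex spheroids with HUVEC endothelial cells and mesenchymal stem cells, treated with drug combinations. Concentrations descend in half-log steps from near clinical Cmax, or from 10 microM if Cmax unknown.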

[1] = curve of first compound, second compound 0.0316 µM
[2] = curve of first compound, second compound 0.1 µM
[3] = curve of first compound, second compound 0.316 µM
[4] = curve of first compound, second compound 1 µM
[5] = curve of first compound, second compound 3.16 µM
[6] = curve of first compound, second compound 10 µM
[7] = second compound 0.0316 µM, first compound 0.00316 µM
[8] = second compound 0.0316 µM, first compound 0.01 µM
[9] = second compound 0.0316 µM, first compound 0.0316 µM
[10] = second compound 0.0316 µM, first compound 0.1 µM
[11] = second compound 0.0316 µM, first compound 0.316 µM
[12] = second compound 0.0316 µM, first compound 1 µM
[13] = second compound 0.1 µM, first compound 0.00316 µM
[14] = second compound 0.1 µM, first compound 0.01 µM
[15] = second compound 0.1 µM, first compound 0.0316 µM
[16] = second compound 0.1 µM, first compound 0.1 µM
[17] = second compound 0.1 µM, first compound 0.316 µM
[18] = second compound 0.1 µM, first compound 1 µM
[19] = second compound 0.316 µM, first compound 0.00316 µM
[20] = second compound 0.316 µM, first compound 0.01 µM
[21] = second compound 0.316 µM, first compound 0.0316 µM
[22] = second compound 0.316 µM, first compound 0.1 µM
[23] = second compound 0.316 µM, first compound 0.316 µM
[24] = second compound 0.316 µM, first compound 1 µM
[25] = second compound 1 µM, first compound 0.00316 µM
[26] = second compound 1 µM, first compound 0.01 µM
[27] = second compound 1 µM, first compound 0.0316 µM
[28] = second compound 1 µM, first compound 0.1 µM
[29] = second compound 1 µM, first compound 0.316 µM
[30] = second compound 1 µM, first compound 1 µM
[31] = second compound 3.16 µM, first compound 0.00316 µM
[32] = second compound 3.16 µM, first compound 0.01 µM
[33] = second compound 3.16 µM, first compound 0.0316 µM
[34] = second compound 3.16 µM, first compound 0.1 µM
[35] = second compound 3.16 µM, first compound 0.316 µM
[36] = second compound 3.16 µM, first compound 1 µM
[37] = second compound 10 µM, first compound 0.00316 µM
[38] = second compound 10 µM, first compound 0.01 µM
[39] = second compound 10 µM, first compound 0.0316 µM
[40] = second compound 10 µM, first compound 0.1 µM
[41] = second compound 10 µM, first compound 0.316 µM
[42] = second compound 10 µM, first compound 1 µM
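Also: spheroids exposed to agents for seven days before readout.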

CCN1CCN(Cc2ccc(Nc3ncc(F)c(-c4cc(F)c5nc(C)n(C(C)C)c5c4)n3)nc2)CC1 + CNC(=O)c1ccc(Nc2nc(OC3CCCC3)c3c(-c4ccc5nc(C)oc5c4)c[nH]c3n2)c(OC)c1
< 6.00: pIC50 [1] | pIC50 [2] | pIC50 [3] | pIC50 [4] | pIC50 [5] | pIC50 [6]
inactive: viability, T/C [7] 96.2% | viability, T/C [8] 111% | viability, T/C [9] 79% | viability, T/C [10] 73.5% | viability, T/C [11] 80.9% | viability, T/C [12] 96.2% | viability, T/C [13] 81.5% | viability, T/C [14] 84.5% | viability, T/C [15] 72.1% | viability, T/C [16] 64.4% | viability, T/C [17] 77.5% | viability, T/C [18] 88.9% | viability, T/C [19] 67.5% | viability, T/C [20] 58.9% | viability, T/C [21] 60.5% | viability, T/C [22] 59.3% | viability, T/C [23] 65.3% | viability, T/C [24] 71.9% | viability, T/C [25] 72% | viability, T/C [26] 62.8% | viability, T/C [27] 59.2% | viability, T/C [28] 47.9% | viability, T/C [29] 62.8% | viability, T/C [30] 65.6% | viability, T/C [31] 65.2% | viability, T/C [32] 51.5% | viability, T/C [33] 56.2% | viability, T/C [34] 56.2% | viability, T/C [35] 66.5% | viability, T/C [36] 67.9% | viability, T/C [37] 54.6% | viability, T/C [38] 62.1% | viability, T/C [39] 54.5% | viability, T/C [40] 58.6% | viability, T/C [41] 63.2% | viability, T/C [42] 74.2%

C#Cc1c(F)ccc2cc(O)cc(-c3ncc4c(N5CC6CCC(C5)N6)nc(OCC56CCCN5CC(F)C6)nc4c3F)c12 (stereo not drawn)
6.06 and 5.72: pIC50 (curve of compound)
inactive: viability, T/C (compound 0.0316 µM) 76.7% and 87.4% | viability, T/C (compound 0.1 µM) 73.1% and 85.8% | viability, T/C (compound 0.316 µM) 55.9% and 64.3% | viability, T/C (compound 1 µM) 51.7% and 67% | viability, T/C (compound 3.16 µM) 36.1% and 38.3% | viability, T/C (compound 10 µM) 26.8% and 29.4%

CC(=O)O[C@H]1C(=O)[C@@]2(C)[C@H]([C@H](OC(=O)c3ccccc3)[C@]3(O)C[C@H](OC(=O)[C@H](O)[C@@H](NC(=O)c4ccccc4)c4ccccc4)C(C)=C1C3(C)C)[C@]1(OC(C)=O)CO[C@@H]1C[C@@H]2O + CN1CCN(c2cc(C(=O)Nc3cc4cc(-c5cnn(C)c5)ccc4cn3)ccn2)CC1
inactive: viability, T/C [9] 72.2% | viability, T/C [10] 61.6% | viability, T/C [11] 61.4% | viability, T/C [12] 69.7% | viability, T/C (second compound 0.0316 µM, first compound 3.16 µM) 78.1% | viability, T/C (second compound 0.0316 µM, first compound 10 µM) 85.3% | viability, T/C [15] 70.5% | viability, T/C [16] 61.9% | viability, T/C [17] 73.1% | viability, T/C [18] 81.5% | viability, T/C (second compound 0.1 µM, first compound 3.16 µM) 83.8% | viability, T/C (second compound 0.1 µM, first compound 10 µM) 95.4% | viability, T/C [21] 68.7% | viability, T/C [22] 73% | viability, T/C [23] 72.3% | viability, T/C [24] 69.7% | viability, T/C (second compound 0.316 µM, first compound 3.16 µM) 72.7% | viability, T/C (second compound 0.316 µM, first compound 10 µM) 85.4% | viability, T/C [27] 21.8% | viability, T/C [28] 20.5% | viability, T/C [29] 18.8% | viability, T/C [30] 19.6% | viability, T/C (second compound 1 µM, first compound 3.16 µM) 18.7% | viability, T/C (second compound 1 µM, first compound 10 µM) 16.4%
< 5.00: pIC50 [1] | pIC50 [2] | pIC50 [3]
> 7.50: pIC50 [4] | pIC50 [5] | pIC50 [6]
active: viability, T/C [33] 6.64% | viability, T/C [34] 7.47% | viability, T/C [35] 8.49% | viability, T/C [36] 4.12% | viability, T/C (second compound 3.16 µM, first compound 3.16 µM) 9.46% | viability, T/C (second compound 3.16 µM, first compound 10 µM) 8% | viability, T/C [39] 1.52% | viability, T/C [40] 1.43% | viability, T/C [41] 1.2% | viability, T/C [42] 1.05% | viability, T/C (second compound 10 µM, first compound 3.16 µM) 0.96% | viability, T/C (second compound 10 µM, first compound 10 µM) 1.27%

CCN1CCN(Cc2ccc(Nc3ncc(F)c(-c4cc(F)c5nc(C)n(C(C)C)c5c4)n3)nc2)CC1 + CN1CCN(c2cc(C(=O)Nc3cc4cc(-c5cnn(C)c5)ccc4cn3)ccn2)CC1
inactive: viability, T/C [7] 110% | viability, T/C [8] 101% | viability, T/C [9] 89% | viability, T/C [10] 88.8% | viability, T/C [11] 90.8% | viability, T/C [12] 110% | viability, T/C [13] 122% | viability, T/C [14] 113% | viability, T/C [15] 93.8% | viability, T/C [16] 85.5% | viability, T/C [17] 72.5% | viability, T/C [18] 107% | viability, T/C [19] 103% | viability, T/C [20] 84.9% | viability, T/C [21] 89% | viability, T/C [22] 72.3% | viability, T/C [23] 69.4% | viability, T/C [24] 84.5% | viability, T/C [25] 34.6% | viability, T/C [26] 37.7% | viability, T/C [27] 34.4% | viability, T/C [28] 41.9% | viability, T/C [29] 53.5% | viability, T/C [30] 49.8%
> 8.50: pIC50 [4] | pIC50 [5] | pIC50 [6]
< 6.00: pIC50 [1] | pIC50 [2] | pIC50 [3]
active: viability, T/C [31] 8.29% | viability, T/C [32] 8.47% | viability, T/C [33] 8.82% | viability, T/C [34] 7.58% | viability, T/C [35] 9.92% | viability, T/C [36] 13.5% | viability, T/C [37] 1.95% | viability, T/C [38] 2.42% | viability, T/C [39] 1.51% | viability, T/C [40] 1.89% | viability, T/C [41] 2.56% | viability, T/C [42] 1.96%

Source: PubChem BioAssay AID2060603 (Molecular Pharmacology Branch, DTP, NCI, 2025)
